Test results published in publication PMC10755736, “Modulating Liquid–Liquid Phase Separation of Nck Adaptor Protein against Enteropathogenic Escherichia coli Infection” (ACS Central Science, 2023).
Non-standard residues stand in square brackets, D forms with d. Residues, ends and D or L forms follow the SMILES beside them. *: point of attachment. Biotin = O=C1N[C@H]2[C@H](CS[C@H]2CCCCC(=O)*)N1; Benzoyl(3-SO2F) = O=C(c1cccc(S(=O)(=O)F)c1)*; pY = N[C@@H](Cc1ccc(OP(=O)(O)O)cc1)C(=O)O; Dap = NC[C@H](N)C(=O)O

How the values were obtained:
[1] = system: EPEC infection of Caco-2 cells; test: EPEC infection assay of Caco-2 cells (CFU counts); format: cell-based, enteropathogenic Escherichia coli; conditions: with L17E-mediated delivery, L17E 40 μM
Experimental: Lastly, to examine whether pretreatment of Caco-2 cells with L17E/p1 could prevent EPEC infection, we first established a bacterial infection assay (Figure 7a). Caco-2 cells were pretreated with L17E/p1 for 2 h. After excess peptides were removed, Caco-2 cells were then infected with EPEC at different multiplicity of infection (MOI) values (MOI is commonly defined as the ratio of infectious bacteria to cells in a culture) for 3 h, and extra bacterial cells were removed from the culture. Next, gentamicin was added to the cell culture to remove EPEC that are merely attached to the surface of Caco-2 cells, leaving only engulfed EPEC inside Caco2 cells to be counted (gentamicin treatment will not kill intracellular bacteria due to its cellular impermeability). After gentamicin was washed away, cells were lysed to release EPEC cells inside, and the cell lysates were diluted to count the number of EPEC cells as colony-forming units (cfu) on agar plates.
Caco-2 cells were seeded in a 24-well plate at a density of 1×10^4 cells for 24 h and pretreated with peptide complexes for 2 h. After washing with DMEM, cells were infected with EPEC at selected MOI values for 3 h at 37 ℃. Cells were then treated with gentamicin ([…]) for 2 h and lysed with 1% […]
Triton X-100 for 15 min. […]
The sample was loaded onto 12% SDS/PAGE glycerol gel and then transferred onto a PVDF membrane using Bio-Rad […]. The membrane was blocked and incubated with a rabbit anti-Nck antibody (Abcam, Hong Kong) at 4 °C overnight, followed by a n anti -rabbit HRP -labeled secondary antibody (Abcam, Hong Kong).
SPSS 23.0 statistical software was used to process experimental data. The differences between mean ± SEM of three independent experiments were assessed by Student's t -test.

Nck = target: T1, Nck (Homo sapiens, UniProt P16333); test: Crosslinking of peptides with recombinant Nck in vitro (SDS-PAGE, Western blotting); format: binding; conditions: peptide:Nck 5:1, 37 °C, PBS, 1 h; SDS-PAGE and anti-biotin Western blotting
T1 construct: GST (followed by PreScission/HRV 3C site) (N, cleaved yes); made in house; host or cells: E. coli BL21(DE3)
Source text: Although peptide Y474 can block Nck-mediated LLPS, the requirement of a high concentration of the blocker peptide is hard to achieve inside the cell. […] The side chains of the Nck lysine residues are pointing toward the residues at pY+1 and pY+2 positions with distances of only 4 to 6 Å. This unique feature gives us an opportunity to design covalent blockers for Nck-SH2 by installing electrophiles at the pY+1 or pY+2 positions to enable a proximal conjugation reaction with one of the lysine residues. Covalent blockage through the characteristic lysine residues will maximize the specificity of the inhibitor toward Nck-SH2. As sulfonyl fluoride has been reported to react with proteinaceous nucleophiles such as lysine, histidine, or cysteine,[34] we installed a sulfonyl fluoride group on the side chain of diaminopropionic acid, giving an unnatural amino acid X1 at different positions such as pY+1 (Asp6) and pY+3 (Val8) of peptide EEHIpYDEVAAD. Besides the amino acid X1, we also included α-chloroacetyl-carrying amino acids X2 and X3, which may also react with proteineous nucleophiles. Electrophile-containing reactive peptides p1 to p11 were synthesized with a biotin tag at the N-termini (Figure 4b). After the reactive peptides were incubated with recombinant Nck protein at a 5:1 ratio at 37 °C in PBS for 1 h, the formation of covalently linked Nck–peptide conjugates could be observed, shown as new protein bands with molecular weights higher than that of Nck based on denatured SDS-PAGE and Western blotting analysis against biotin (Figure 4c). […] At 37 °C in PBS buffer, the 1:1 reaction efficiency reached 50% in 2 min (Figure S4 in the Supporting Information).
Figure 4 Covalently reactive peptides designed based on a Tir peptide. (a) Crystal structure of Nck-SH2 in complex with a peptide EEHIpYDEVAAD from EPEC protein Tir (PDB: 2CI9). (b) List of synthetic reactive peptides. (c) Unnatural amino acids in the peptides. (d) SDS-PAGE (top) and Western blotting (bottom) analyses showing covalent conjugation of the peptides with Nck. […]

Nck-SH2 = conditions: cited from earlier work
Source text: Phosphorylated Tir is known to bind to Nck-SH2. […] Also, the sequence of nephrin contains three Tyr-containing sequences that are similar to those of the Tir peptide: HLYDEV, PLYDEV, and GIYDQV (the potential phosphorylation sites are underscored), with a hydrophobic residue at the pY-1 site, and negatively charged residues at pY+1 and/or pY+2 (Figure 2c). Therefore, we reason that phosphorylation at these Tyr turns nephrin into p-nephrin, a ...

CC[C@H](C)[C@H](NC(=O)[C@H](Cc1c[nH]cn1)NC(=O)[C@H](CCC(=O)O)NC(=O)[C@H](CCC(=O)O)NC(=O)[C@@H]1CCCN1)C(=O)N[C@@H](Cc1ccc(OP(=O)(O)O)cc1)C(=O)N[C@@H](CC(=O)O)C(=O)N[C@@H](CCC(=O)O)C(=O)N[C@H](C(=O)N[C@@H](C)C(=O)N[C@@H](C)C(=O)N[C@@H](CC(=O)O)C(=O)N1CCC[C@H]1C(=O)NCC(N)=O)C(C)C [Y474]
blockage of EPEC invasion/infection of Caco-2 cells [1]: can block EPEC invasion to Caco-2 cells

CC[C@H](C)[C@H](NC(=O)[C@H](Cc1c[nH]cn1)NC(=O)[C@H](CCC(=O)O)NC(=O)[C@H](CCC(=O)O)NC(=O)CCCC[C@@H]1SC[C@@H]2NC(=O)N[C@@H]21)C(=O)N[C@@H](Cc1ccc(OP(=O)(O)O)cc1)C(=O)N[C@@H](CC(=O)O)C(=O)N[C@@H](CCC(=O)O)C(=O)N[C@H](C(=O)N[C@@H](C)C(=O)N[C@@H](C)C(=O)N[C@@H](CNC(=O)c1cccc(S(=O)(=O)F)c1)C(N)=O)C(C)C [p7] (Biotin-EEHI[pY]DEVAA[Dap](Benzoyl(3-SO2F))-NH2)
reactivity with Nck (Nck): noticeable reactivity

EEHIpYDEVAADP [12-residue pY-containing Tir peptide]
binding to Nck-SH2 (Nck-SH2): strong binder to Nck-SH2
